Measurements from the supplement of paper PMC10307832.

Tests used:
Assay in all cases: relative viability (nuclei count vs DMSO), 5 days (fraction); higher = more cells survive
[1] = compound: Nc1ncn([C@H]2C[C@H](O)[C@@H](CO)O2)c(=O)n1 [Decitabine] + N=C(N)NC(=N)NCCc1ccccc1 [Phenformin] (partner 250 µM)
How it was run: (§1)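 Lung cancer cell lines were seeded in 1536-well plates and dosed by pin tool the next day, with either a single drug or a fixed anchor-drug dose combined with five library-drug doses (not always all listed) spaced in √10 steps. Five days later, one step fixed the cells and stained their nuclei (final 0.05% Triton X-100, 1% formaldehyde, 1 ug/ml Hoechst), and nuclei were counted on 4× images. Relative viability is the nuclei count in treated wells divided by the count in vehicle wells, and each value is the median of duplicate plates.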

[2] = compound: Nc1ncn([C@H]2C[C@H](O)[C@@H](CO)O2)c(=O)n1 [Decitabine] + NC(=O)Nc1cc(-c2cccc(F)c2)sc1C(=O)N[C@H]1CCCNC1 [AZD7762] (partner 0.2 µM)
How it was run: as §1

[3] = compound: Nc1ncn([C@H]2C[C@H](O)[C@@H](CO)O2)c(=O)n1 [Decitabine] + O=C(c1cc(Cc2n[nH]c(=O)c3ccccc23)ccc1F)N1CCN(C(=O)C2CC2)CC1 [Olaparib] (partner 8 µM)
How it was run: as §1

[4] = compound: O=C(C[C@H]1NCCC[C@@H]1O)Cn1cnc2cc(Br)c(Cl)cc2c1=O (racemic) [Halofuginone] + O=C(c1cc(Cc2n[nH]c(=O)c3ccccc23)ccc1F)N1CCN(C(=O)C2CC2)CC1 [Olaparib] (partner 8 µM)
How it was run: as §1

Cell Line | relative viability ([1]; first compound 0.04 µM) | relative viability ([1]; first compound 0.1265 µM) | relative viability ([1]; first compound 0.4 µM) | relative viability ([1]; first compound 1.265 µM) | relative viability ([1]; first compound 4 µM) | relative viability ([2]; first compound 0.04 µM) | relative viability ([2]; first compound 0.1265 µM) | relative viability ([2]; first compound 0.4 µM) | relative viability ([2]; first compound 1.265 µM) | relative viability ([2]; first compound 4 µM) | relative viability ([3]; first compound 0.04 µM) | relative viability ([3]; first compound 0.1265 µM) | relative viability ([3]; first compound 0.4 µM) | relative viability ([3]; first compound 1.265 µM) | relative viability ([3]; first compound 4 µM) | relative viability ([4]; first compound 0.001 µM) | relative viability ([4]; first compound 0.003162 µM) | relative viability ([4]; first compound 0.01 µM) | relative viability ([4]; first compound 0.03162 µM) | relative viability ([4]; first compound 0.1 µM)
NCI-H1395 | 0.398 | 0.407 | 0.46 | 0.411 | 0.399 | 0.379 | 0.39 | 0.446 | 0.391 | 0.348 | 0.518 | 0.432 | 0.465 | 0.438 | 0.418 | 0.462 | 0.469 | 0.471 | 0.433 | 0.388
NCI-H1437 | 0.29 | 0.311 | 0.209 | 0.233 | 0.26 | 1.1 | 0.962 | 0.758 | 0.61 | 0.391 | 0.435 | 0.416 | 0.381 | 0.268 | 0.246 | 0.649 | 0.653 | 0.619 | 0.616 | 0.456
NCI-H1651 | 0.331 | 0.345 | 0.383 | 0.287 | 0.318 | 0.43 | 0.446 | 0.336 | 0.341 | 0.355 | 0.136 | 0.163 | 0.12 | 0.144 | 0.118 | 0.177 | 0.194 | 0.2 | 0.178 | 0.176
NCI-H1666 | 0.617 | 0.568 | 0.522 | 0.506 | 0.593 | 0.826 | 0.872 | 0.696 | 0.787 | 0.763 | 0.65 | 0.698 | 0.723 | 0.619 | 0.651 | 0.758 | 0.785 | 0.714 | 0.789 | 0.705
NCI-H1734 | 0.348 | 0.38 | 0.382 | 0.276 | 0.274 | 0.417 | 0.51 | 0.501 | 0.209 | 0.209 | 0.274 | 0.302 | 0.203 | 0.152 | 0.191 | 0.632 | 0.621 | 0.6 | 0.584 | 0.22
NCI-H1755 | 0.625 | 0.629 | 0.43 | 0.442 | 0.465 | 0.634 | 0.463 | 0.56 | 0.467 | 0.419 | 0.648 | 0.609 | 0.43 | 0.359 | 0.365 | 0.853 | 0.941 | 0.881 | 0.833 | 0.723
NCI-H1792 | 0.445 | 0.275 | 0.707 | 0.262 | 0.175 | 0.616 | 0.731 | 0.478 | 0.242 | 0.19 | 0.211 | 0.288 | 0.148 | 0.0819 | 0.116 | 0.529 | 0.424 | 0.355 | 0.42 | 0.0661
NCI-H1793 | 0.384 | 0.411 | 0.336 | 0.305 | 0.244 | 0.37 | 0.591 | 0.258 | 0.154 | 0.169 | 0.455 | 0.307 | 0.281 | 0.19 | 0.212 | 0.988 | 0.852 | 0.814 | 0.902 | 0.294
NCI-H1915 | 0.291 | 0.294 | 0.274 | 0.242 | 0.26 | 0.296 | 0.266 | 0.217 | 0.195 | 0.201 | 0.173 | 0.169 | 0.142 | 0.124 | 0.145 | 0.225 | 0.247 | 0.241 | 0.26 | 0.237
NCI-H1944 | 0.191 | 0.21 | 0.227 | 0.166 | 0.199 | 0.331 | 0.289 | 0.29 | 0.218 | 0.231 | 0.281 | 0.307 | 0.255 | 0.192 | 0.207 | 0.416 | 0.407 | 0.395 | 0.405 | 0.402
NCI-H1975 | 0.281 | 0.27 | 0.214 | 0.229 | 0.197 | 0.451 | 0.451 | 0.441 | 0.465 | 0.403 | 0.292 | 0.266 | 0.232 | 0.193 | 0.174 | 0.875 | 0.868 | 0.721 | 0.429 | 0.14
NCI-H1993 | 0.558 | 0.494 | 0.507 | 0.504 | 0.478 | 0.654 | 0.796 | 0.644 | 0.641 | 0.703 | 0.647 | 0.614 | 0.625 | 0.44 | 0.473 | 0.949 | 0.699 | 1.04 | 1.02 | 0.623
NCI-H2085 | 0.516 | 0.51 | 0.381 | 0.361 | 0.394 | 0.757 | 0.852 | 0.655 | 0.527 | 0.615 | 0.46 | 0.42 | 0.425 | 0.324 | 0.344 | 0.795 | 0.816 | 0.728 | 0.736 | 0.684
NCI-H2087 | 0.411 | 0.359 | 0.291 | 0.242 | 0.25 | 0.853 | 0.719 | 0.58 | 0.493 | 0.499 | 0.187 | 0.236 | 0.217 | 0.145 | 0.14 | 0.616 | 0.685 | 0.629 | 0.617 | 0.277
NCI-H2126 | 0.478 | 0.483 | 0.423 | 0.451 | 0.468 | 0.874 | 0.938 | 0.577 | 0.713 | 0.591 | 0.63 | 0.546 | 0.459 | 0.42 | 0.85 | 0.893 | 0.863 | 0.882 | 0.901 | 0.916
NCI-H2170 | 0.345 | 0.365 | 0.291 | 0.269 | 0.282 | 0.412 | 0.52 | 0.554 | 0.268 | 0.245 | 0.271 | 0.201 | 0.216 | 0.137 | 0.134 | 0.64 | 0.593 | 0.589 | 0.605 | 0.551
